# From the OligoGym collection
# Values joined by “and” are separate entries in the source; they are usually repeats but may differ in a detail not shown here. Equal values may be shown once. HELM strings list units from the 5' end as sugar, base in round brackets, then linkage (d deoxyribose, r ribose, m 2'-O-methyl, p phosphodiester). Strings are as the collection lists them, not checked against the first reports. ss, as = sense and antisense strand; [una] = unlocked nucleic acid; [fl2r] = 2'-fluoro
# Details: siRNA
# Also: test system not given here.
row,Substance,target mRNA knockdown
1,RNA1{r(G)p.r(G)p.r(C)p.r(C)p.r(U)p.r(U)p.r(U)p.r(C)p.r(U)p.r(C)p.r(U)p.r(C)p.m(U)p.r(A)p.r(G)p.r(A)p.m(U)p.r(A)p.r(U)p.r(T)p.r(T)}|RNA2{r(A)p.m(U)p.r(A)p.r(U)p.r(C)p.m(U)p.r(A)p.r(G)p.r(A)p.r(G)p.r(A)p.r(G)p.r(A)p.r(A)p.r(A)p.r(G)p.r(G)p.r(C)p.r(C)p.r(T)p.r(T)}$$$RNA1{StrandType:ss}|RNA2{StrandType:as}$,89%
2,RNA1{r(G)p.r(G)p.r(C)p.r(C)p.r(U)p.r(U)p.r(U)p.r(C)p.r(U)p.r(C)p.r(U)p.r(C)p.r(U)p.r(A)p.r(G)p.r(A)p.r(U)p.r(A)p.r(U)p.r(T)p.r(T)}|RNA2{r(A)p.m(U)p.r(A)p.r(U)p.r(C)p.m(U)p.r(A)p.r(G)p.r(A)p.r(G)p.r(A)p.r(G)p.r(A)p.r(A)p.r(A)p.r(G)p.r(G)p.r(C)p.r(C)p.r(T)p.r(T)}$$$RNA1{StrandType:ss}|RNA2{StrandType:as}$,90%
3,RNA1{r(G)p.r(G)p.r(C)p.r(G)p.r(G)p.r(G)p.r(C)p.r(U)p.r(C)p.r(U)p.r(U)p.r(U)p.r(C)p.r(C)p.m(U)p.r(A)p.r(U)p.r(U)p.r(C)p.r(T)p.r(T)}|RNA2{r(G)p.r(A)p.r(A)p.m(U)p.r(A)p.r(G)p.r(G)p.r(A)p.r(A)p.r(A)p.r(G)p.r(A)p.r(G)p.r(C)p.r(C)p.r(C)p.r(G)p.r(C)p.r(C)p.r(T)p.r(T)}$$$RNA1{StrandType:ss}|RNA2{StrandType:as}$,69%
4,RNA1{r(G)p.r(G)p.r(C)p.r(U)p.[fl2r](U)p.r(A)p.r(G)p.r(U)p.[fl2r](C)p.r(A)p.r(C)p.r(U)p.r(C)p.r(C)p.r(U)p.r(C)p.r(U)p.r(U)p.r(C)p.r(T)p.r(T)}|RNA2{r(G)p.r(A)p.r(A)p.r(G)p.r(A)p.r(G)p.r(G)p.r(A)p.r(G)p.[fl2r](U)p.r(G)p.r(A)p.r(C)p.[fl2r](U)p.r(A)p.r(A)p.r(G)p.r(C)p.r(C)p.r(T)p.r(T)}$$$RNA1{StrandType:ss}|RNA2{StrandType:as}$,68%
5,RNA1{r(G)p.r(G)p.r(C)p.r(U)p.[fl2r](U)p.r(A)p.r(G)p.r(U)p.r(C)p.r(A)p.r(C)p.r(U)p.r(C)p.r(C)p.r(U)p.r(C)p.r(U)p.r(U)p.r(C)p.r(T)p.r(T)}|RNA2{r(G)p.r(A)p.r(A)p.r(G)p.r(A)p.r(G)p.r(G)p.r(A)p.r(G)p.r(U)p.r(G)p.r(A)p.r(C)p.[fl2r](U)p.r(A)p.r(A)p.r(G)p.r(C)p.r(C)p.r(T)p.r(T)}$$$RNA1{StrandType:ss}|RNA2{StrandType:as}$,69%
6,RNA1{r(G)p.r(G)p.r(G)p.r(A)p.r(A)p.r(A)p.[fl2r](C)p.[fl2r](U)p.r(G)p.r(A)p.r(A)p.r(A)p.r(G)p.r(G)p.[fl2r](C)p.[fl2r](U)p.r(A)p.[fl2r](U)p.r(G)p.r(T)p.r(T)}|RNA2{r(C)p.r(A)p.r(U)p.r(A)p.r(G)p.r(C)p.r(C)p.r(U)p.r(U)p.r(U)p.r(C)p.r(A)p.r(G)p.r(U)p.r(U)p.r(U)p.r(C)p.r(C)p.r(C)p.r(T)p.r(T)}$$$RNA1{StrandType:ss}|RNA2{StrandType:as}$,51%
7,RNA1{r(G)p.r(G)p.r(G)p.r(A)p.r(A)p.r(A)p.r(C)p.r(U)p.r(G)p.r(A)p.r(A)p.r(A)p.r(G)p.r(G)p.r(C)p.[fl2r](U)p.r(A)p.r(U)p.r(G)p.r(T)p.r(T)}|RNA2{r(C)p.r(A)p.r(U)p.r(A)p.r(G)p.r(C)p.r(C)p.r(U)p.r(U)p.r(U)p.r(C)p.r(A)p.r(G)p.r(U)p.r(U)p.r(U)p.r(C)p.r(C)p.r(C)p.r(T)p.r(T)}$$$RNA1{StrandType:ss}|RNA2{StrandType:as}$,50%
8,RNA1{r(G)p.r(G)p.r(G)p.r(A)p.r(A)p.r(A)p.r(C)p.r(U)p.r(G)p.r(A)p.r(A)p.r(A)p.r(G)p.r(G)p.r(C)p.r(U)p.r(A)p.r(U)p.r(G)p.r(T)p.r(T)}|RNA2{[fl2r](C)p.r(A)p.[fl2r](U)p.r(A)p.r(G)p.[fl2r](C)p.[fl2r](C)p.[fl2r](U)p.[fl2r](U)p.[fl2r](U)p.[fl2r](C)p.r(A)p.r(G)p.[fl2r](U)p.[fl2r](U)p.[fl2r](U)p.[fl2r](C)p.[fl2r](C)p.[fl2r](C)p.r(T)p.r(T)}$$$RNA1{StrandType:ss}|RNA2{StrandType:as}$,6%
9,RNA1{r(G)p.r(G)p.r(G)p.r(A)p.r(G)p.r(G)p.r(A)p.[fl2r](U)p.[fl2r](G)p.r(A)p.[fl2r](C)p.r(A)p.r(A)p.r(A)p.r(G)p.r(A)p.r(A)p.r(G)p.r(C)p.r(T)p.r(T)}|RNA2{r(G)p.r(C)p.r(U)p.r(U)p.r(C)p.r(U)p.r(U)p.[fl2r](U)p.r(G)p.r(U)p.[fl2r](C)p.r(A)p.r(U)p.r(C)p.r(C)p.r(U)p.r(C)p.r(C)p.r(C)p.r(T)p.r(T)}$$$RNA1{StrandType:ss}|RNA2{StrandType:as}$,78%
10,RNA1{r(G)p.r(G)p.r(G)p.r(A)p.r(G)p.r(G)p.r(A)p.r(U)p.[fl2r](G)p.r(A)p.r(C)p.[fl2r](A)p.r(A)p.r(A)p.r(G)p.r(A)p.r(A)p.r(G)p.r(C)p.r(T)p.r(T)}|RNA2{r(G)p.r(C)p.r(U)p.r(U)p.r(C)p.r(U)p.r(U)p.[fl2r](U)p.r(G)p.r(U)p.r(C)p.r(A)p.r(U)p.r(C)p.r(C)p.r(U)p.r(C)p.r(C)p.r(C)p.r(T)p.r(T)}$$$RNA1{StrandType:ss}|RNA2{StrandType:as}$,84%
11,RNA1{r(G)p.r(G)p.r(G)p.r(A)p.r(G)p.r(G)p.r(A)p.r(U)p.r(G)p.r(A)p.r(C)p.r(A)p.r(A)p.r(A)p.r(G)p.r(A)p.r(A)p.r(G)p.r(C)p.r(T)p.r(T)}|RNA2{r(G)p.[fl2r](C)p.r(U)p.r(U)p.[fl2r](C)p.r(U)p.r(U)p.r(U)p.r(G)p.r(U)p.[fl2r](C)p.r(A)p.r(U)p.[fl2r](C)p.[fl2r](C)p.r(U)p.[fl2r](C)p.[fl2r](C)p.[fl2r](C)p.r(T)p.r(T)}$$$RNA1{StrandType:ss}|RNA2{StrandType:as}$,37%
12,RNA1{r(G)p.r(G)p.r(G)p.r(A)p.r(G)p.r(G)p.r(U)p.r(C)p.r(U)p.m(U)p.r(A)p.r(G)p.r(A)p.r(A)p.r(A)p.r(A)p.r(C)p.r(A)p.r(C)p.r(T)p.r(T)}|RNA2{r(G)p.r(U)p.r(G)p.r(U)p.r(U)p.r(U)p.r(U)p.r(C)p.m(U)p.r(A)p.r(A)p.r(G)p.r(A)p.r(C)p.r(C)p.r(U)p.r(C)p.r(C)p.r(C)p.r(T)p.r(T)}$$$RNA1{StrandType:ss}|RNA2{StrandType:as}$,84%
13,RNA1{r(G)p.r(G)p.r(G)p.r(A)p.r(G)p.r(G)p.r(U)p.r(C)p.r(U)p.r(U)p.r(A)p.r(G)p.r(A)p.r(A)p.r(A)p.r(A)p.r(C)p.r(A)p.r(C)p.r(T)p.r(T)}|RNA2{r(G)p.r(U)p.r(G)p.r(U)p.r(U)p.r(U)p.r(U)p.r(C)p.m(U)p.r(A)p.r(A)p.r(G)p.r(A)p.r(C)p.r(C)p.r(U)p.r(C)p.r(C)p.r(C)p.r(T)p.r(T)}$$$RNA1{StrandType:ss}|RNA2{StrandType:as}$,82%
14,RNA1{r(G)p.r(G)p.r(G)p.r(G)p.r(C)p.r(U)p.r(C)p.r(U)p.r(U)p.r(C)p.m(U)p.r(A)p.r(C)p.r(A)p.m(U)p.r(U)p.r(C)p.r(C)p.r(C)p.r(T)p.r(T)}|RNA2{r(G)p.r(G)p.r(G)p.r(A)p.r(A)p.m(U)p.r(G)p.m(U)p.r(A)p.r(G)p.r(A)p.r(A)p.r(G)p.r(A)p.r(G)p.r(C)p.r(C)p.r(C)p.r(C)p.r(T)p.r(T)}$$$RNA1{StrandType:ss}|RNA2{StrandType:as}$,68%
15,RNA1{r(G)p.r(G)p.r(G)p.r(G)p.r(C)p.r(U)p.r(C)p.r(U)p.r(U)p.r(C)p.r(U)p.m(A)p.r(C)p.r(A)p.r(U)p.r(U)p.r(C)p.r(C)p.r(C)p.r(T)p.r(T)}|RNA2{r(G)p.r(G)p.r(G)p.r(A)p.r(A)p.r(U)p.r(G)p.m(U)p.r(A)p.r(G)p.r(A)p.r(A)p.r(G)p.r(A)p.r(G)p.r(C)p.r(C)p.r(C)p.r(C)p.r(T)p.r(T)}$$$RNA1{StrandType:ss}|RNA2{StrandType:as}$,72%
16,RNA1{r(G)p.r(G)p.r(U)p.r(A)p.r(G)p.r(G)p.r(G)p.r(U)p.r(U)p.r(G)p.r(A)p.r(A)p.r(G)p.r(A)p.r(G)p.r(A)p.r(C)p.r(U)p.r(U)p.r(T)p.r(T)}|RNA2{r(A)p.r(A)p.r(G)p.r(U)p.r(C)p.r(U)p.r(C)p.r(U)p.r(U)p.r(C)p.r(A)p.r(A)p.r(C)p.r(C)p.r(C)p.m(U)p.r(A)p.r(C)p.r(C)p.r(T)p.r(T)}$$$RNA1{StrandType:ss}|RNA2{StrandType:as}$,95%
17,RNA1{r(G)p.r(G)p.r(U)p.r(C)p.r(A)p.r(U)p.r(C)p.r(C)p.r(A)p.r(U)p.r(G)p.r(A)p.r(C)p.r(A)p.r(A)p.r(C)p.r(U)p.r(U)p.r(U)p.d(T)p.d(T)}|RNA2{r(A)p.r(A)p.r(A)p.r(G)p.r(U)p.r(U)p.r(G)p.r(U)p.r(C)p.r(A)p.r(U)p.r(G)p.r(G)p.r(A)p.r(U)p.r(G)p.r(A)p.r(C)p.r(C)p.d(T)p.d(T)}$$$RNA1{StrandType:ss}|RNA2{StrandType:as}$,80% and 94%
18,RNA1{r(G)p.r(U)p.r(A)p.r(U)p.r(C)p.r(C)p.r(G)p.r(A)p.r(A)p.r(G)p.r(A)p.r(C)p.r(G)p.r(A)p.r(A)p.r(G)p.r(C)p.m(U)p.r(A)p.r(T)p.r(T)}|RNA2{m(U)p.r(A)p.r(G)p.r(C)p.r(U)p.r(U)p.r(C)p.r(G)p.r(U)p.r(C)p.r(U)p.r(U)p.r(C)p.r(G)p.r(G)p.r(A)p.m(U)p.r(A)p.r(C)p.r(T)p.r(T)}$$$RNA1{StrandType:ss}|RNA2{StrandType:as}$,95%
19,RNA1{r(G)p.r(U)p.r(A)p.r(U)p.r(G)p.r(A)p.r(C)p.r(C)p.r(G)p.r(A)p.r(C)p.r(U)p.r(A)p.r(C)p.r(G)p.r(C)p.r(G)p.r(U)p.r(A)p.r(T)p.r(T)}|RNA2{r(U)p.[una](U)p.r(C)p.r(A)p.r(G)p.r(U)p.r(G)p.r(U)p.r(G)p.r(A)p.r(U)p.r(G)p.r(A)p.r(C)p.r(A)p.r(C)p.r(U)p.r(U)p.r(G)p.r(T)p.r(T)}$$$RNA1{StrandType:ss}|RNA2{StrandType:as}$,0% and 2%
20,RNA1{r(G)p.r(U)p.r(A)p.r(U)p.r(G)p.r(A)p.r(C)p.r(C)p.r(G)p.r(A)p.r(C)p.r(U)p.r(A)p.r(C)p.r(G)p.r(C)p.r(G)p.r(U)p.r(A)p.r(T)p.r(T)}|RNA2{r(U)p.r(U)p.[una](C)p.r(A)p.r(G)p.r(U)p.r(G)p.r(U)p.r(G)p.r(A)p.r(U)p.r(G)p.r(A)p.r(C)p.r(A)p.r(C)p.r(U)p.r(U)p.r(G)p.r(T)p.r(T)}$$$RNA1{StrandType:ss}|RNA2{StrandType:as}$,45% and 50%
